These results are taken from patent US8623649B2, “Method of selecting a cardiomyoctye using intracellular mitochondria as an indicator” (Daiichi Sankyo Company, Limited, priority 2004, dated 2014).

“Also recorded” adds a separate entry of the source.

Common to all, as to format: cell-based
Assay [1] relates to cell mixture derived from a whole heart extracted from neonatal rat heart. As to the kind of experiment: Labeling of neonatal rat whole-heart cell mixture with mitochondrial indicator, FACS sorting, anti-Sarcomeric α-Actinin immunostaining. The note with it: for percentage of cardiomyocyte in cells with relatively higher fluorescent intensity (P5 area): cultured 24 hours. As to the method: (§1) Neonatal rats 1-3 days after birth were sacrificed by cervical dislocation after ether anesthesia, after which the heart of each rats was isolated. Cardiac ventricle isolated from the heart was treated with 0.025% (w/v) of collagenase (available from Warthington Biomedical Corporation) in serum free D-MEM (High-glucose) medium (available from Invitrogen). By digesting the cardiac ventricle using collagenase, cells were dispersed in the medium to prepare a cell mixture derived from a whole heart.
(§2) Subsequently, the culture medium was replaced by D-MEM (High-glucose) medium (available from Invitrogen) supplemented with 10% (final concentration) of fetal bovine serum (available from JRH Bioscience). Thus prepared cultured cells were incubated in the culture medium containing 100 nM (final concentration) of a mitochondrial indicator, M7512 (available from Molecular Probe) for 10 minutes at 37° C. After incubation, the cells were washed 4 times using the culture medium and further cultured for 24 hours at 37° C.
The cell mixture derived from a whole heart was prepared in accordance with the method described in Example 1 and labeled with M7512. The labeled cell mixture derived from a whole heart was subjected to analysis of distribution of the cells of the cell mixture derived from a whole heart using FACS (registered trademark) (BD, Franklin Lakes, N.J. USA).
In this example, cells of P5 area were sorted as a cardiomyocyte and cells of P6 area were sorted as a non-cardiomyocyte, each then being separately subjected to the cell culture.
(§3) Next, the fixed cells were labeled with a cardiomyocyte marker, mouse anti-Sarcomeric α-Actinin Antibody (available from SIGMA), which were visualized using green fluorescent material-conjugated goat anti-mouse antibody (available from Molecular Probes).
In this example, the cell mixture derived from a whole heart extracted from a neonatal rat heart, which was labeled with a mitochondrial indicator, was prepared by the same method as that described in Example 1, except that T3168 (available from Molecular Probe) was used as a mitochondrial indicator.
Thus selected cells were cultured followed by paraformaldehyde fixation by the same method as that described in Example 5, which were labeled with mouse anti-Sarcomeric α-Actinin Antibody (available from SIGMA).
Neonatal rat heart was treated with 0.025% (w/v) of collagenase (available from SIGMA) and trypsin (available from GIBCO) to collect a cell population. Cells dispersed in the culture medium were exposed to 1 μM (final concentration) of a mitochondrial indicator, T668 (available form Molecular Probe) for 15 minutes at 37° C., washed 3 times, and immediately analyzed by FACS.
Neonatal rat heart was treated with collagenase and trypsin to collect a cell population. Cells dispersed in the culture medium were exposed to 1 μM (final concentration) of a mitochondrial indicator S7563 for 15 minutes at 37° C., washed 3 times, and immediately analyzed by FACS.

The test system is the same in assay [2]. Description: Fluorescent microscope observation of labeled neonatal rat whole-heart cell mixture. The note with it: 100 nM, 10 minutes at 37° C., cultured 24 hours. As to the method:
as §1, §2

Assay [3] has as its system cell mixture derived from a mouse embryonic stem cell. As to the kind of experiment: Labeling of mouse embryonic stem cell derived cell mixture with mitochondrial indicator, FACS sorting, Actinin immunostaining.
Description: as §3

Assay [4] shares this test system. Description: Fluorescent microscope observation of labeled mouse embryonic stem cell derived cell mass. The note with it: labeled as Example 1, adhesion culture 5 days after removal of M7512.
Description: Fourteen days after differentiation and induction, a cell mass containing an autonomously pulsating cardiomyocyte was confirmed to be formed in the culture vessel, to which 10^−8 M of all trans-retinoic acid was added for further enhancing the degree of differentiation/induction of the cardiomyocyte.
At 21st day from differentiation/induction, a cell mass containing an autonomously pulsating cardiomyocyte was dispersed into separate cells to form a cell mixture. Thus prepared cell mixture was labeled with M7512 under the same condition as that of Example 1 and cultured under the condition of the adhesion culture for further 5 days after removal of M7512. After further culture for 5 days, a cell mass containing an autonomously pulsating cardiomyocyte prepared under the culture condition was observed using a fluorescent microscope.
Assay [5] concerns neonatal rat cells derived from a whole heart. Description: Double staining with T668 and M7514, comparative FACS analysis of transmembrane potential per mitochondria. As to the method: Cell population was collected using the same materials and the same method as those described in Example 8. Thus collected cardiomyocytes were stained with a mitochondrial indicator, M7514 (available from Molecular Probe), independent of the transmembrane potential which can specifically stain mitochondria and with a mitochondrial indicator T668 dependent on the transmembrane potential which can also specifically stain mitochondria. The cells were analyzed using FACS immediately after the staining. It is possible to separately detect the fluorescence of T668 and that of M7514 since the wavelength of the fluorescence from T668 is different from that from M7514. In this example, three groups of cell population were detected based on T668 fluorescence as an indicator.
Next, each cell population is separated based on the ratio of fluorescent intensity derived from T668 divided by fluorescent intensity derived from M7514. […]
(A flow cytometer gives signals particle by particle.)

The subject of the next assay is whole fetal cells. As to the kind of experiment: Staining of whole fetal cells (fetal rat of 9th day post conception), FACS sorting, Actinin immunostaining. The note with it: 1 μM, 15 minutes at 37° C. The procedure: Fetal rat of 9th day post conception was treated with collagenase and trypsin to collect cell population. Cells dispersed in the culture medium were exposed to 1 μM (final concentration) of a mitochondrial indicator T668 for 15 minutes at 37° C., washed 3 times, and immediately subjected to FACS analysis. One single cell population was mainly observed as a cell population based on the fluorescent intensity. On the other hand, in the high fluorescent intensity area in which the cardiomyocyte was predicted to be detected based on the analysis of a whole heart sample from the later development stage, a definite cell population could not be found (FIG. 10-1).
The cells were cultured and immunostained with an antibody against a cardiomyocyte marker, Actinin. […] Since the cardiomyocyte is extremely immature in the fetus of 9th day post conception (early embryo), it is considered in the art that quantitative alteration of the mitochondria has not completely occurred.

The subject of assay [6] is fetal rat cells derived from a whole heart. As to the kind of experiment: Staining of fetal rat whole-heart cells (13th day post conception), FACS sorting, anti-Actinin immunostaining. The note with it: fetal rat heart of 13th day post conception; 1 μM, 15 minutes at 37° C. As to the method: Fetal rat heart of 13th day post conception was treated with collagenase and trypsin to collect a cell population. Cells dispersed in the culture medium were exposed to 1 μM (final concentration) of a mitochondrial indicator T668 for 15 minutes at 37° C., washed 3 times, and immediately subjected to FACS analysis. The cells were separated into 3 groups of cell population based on T668 fluorescent intensity (FIG. 9-1).
Then, the cardiomyocyte was identified by immunostaining of the cultured cell using anti-Actinin antibody.

The test system of assay [7] is rat cells derived from a whole heart. As to the kind of experiment: Staining of rat whole-heart cells from 11th day post conception to 8 days after birth and FACS analysis. The note with it: 11th day post conception to 8 days after birth; 1 μM, 15 minutes at 37° C. As to the method: Rat heart obtained at 11th day post conception to 8 days after birth was treated with collagenase and trypsin to collect a cell population. Cells dispersed in the culture medium were exposed to 1 μM (final concentration) of a mitochondrial indicator T668 for 15 minutes at 37° C., washed 3 times, and immediately analyzed by FACS. In consequence, the cell population was isolated by T668 fluorescent intensity. […] Therefore, it is shown that it is possible to presume the maturity of the cardiomyocyte by the method provided by the present specification.

[8] abbreviates: 1 μM indicator, 15 minutes at 37° C., immediate FACS, anti-Actinin immunostaining.
Setting [9] is: 100 nM indicator, 10 minutes at 37° C., FACS sorted, anti-Sarcomeric α-Actinin, 30% before selection.
Where [10] appears, read: 1 μM, 15 minutes at 37° C., immediate FACS, Actinin immunostaining.

Turning to `COC(=O)c1ccccc1-c1c2ccc(=N)cc-2oc2cc(N)ccc12.Cl` [R302], the “composition of cell population with the highest fluorescent intensity” value in assay [1] (setting [8]) was “cells of interest can also be obtained”.

As to `ClCc1ccc(C2=c3cc4c5c(c3Oc3c2cc2c6c3CCCN6CCC2)CCC[N+]=5CCC4)cc1.[Cl-]` [M7512, 1H,5H,11H,15H-Xantheno[2,3,4-ij:5,6,7-i′j′]diquinolizin-18-ium, 9-[4-(chloromethyl)phenyl]-2,3,6,7,12,13,16,17-octahydro-, chloride], in assay [1] (setting [9]), the “percentage of cardiomyocyte in cells with relatively higher fluorescent intensity (P5 area)” value was “more than 99%” and the “percentage of cardiomyocyte in cells with relatively lower fluorescent intensity (P6 area)” value was “approximately equal to the percentage of the cardiomyocyte before the selection”. Further, the “indicator-based fluorescence under fluorescent microscope” value in assay [2] is “clearly observed in a cardiomyocyte”. In addition, the “percentage of cardiomyocyte in cells collected from P2 area (relatively higher fluorescent intensity)” value in assay [3] (M7512 labeling as Example 1, 5 days culture after removal, 10% before selection) was “more than 80%”. For the same compound, in assay [4], the “labeling of autonomously pulsating cardiomyocytes compared with other types of cells” value is “strongly labeled”.

For the compound `CCN1C(=CC=Cc2n(CC)c3cc(Cl)c(Cl)cc3[n+]2CC)N(CC)c2cc(Cl)c(Cl)cc21` [T3168, 1H-Benzimidazolium, 5,6-dichloro-2-[3-(5,6-di-chloro-1,3-diethyl-1,3-dihydro-2H-benzimidazol-2-ylidene)-1-propenyl]-1,3-diethyl-, iodide, (E)-], the “percentage of cardiomyocyte in cells with relatively higher fluorescent intensity (P5 area)” value in assay [1] (setting [9]) is “more than 95%”.

Consider `COC(=O)c1ccccc1-c1c2ccc(N(C)C)cc2[o+]c2cc(N(C)C)ccc12` [T668, Xanthylium, 3,6-bis(dimethylamino)-9-(2-(methoxycarbonyl)phenyl)-, perchlorate], for which the “cells with ratio of T668 fluorescent intensity to M7514 fluorescent intensity of more than 150%, share of total cells” value in assay [5] (cell population identified as a cardiomyocyte based on T668 signal) is given as 90%; in assay [5] (cell population identified as a non-cardiomyocyte based on T668 signal), 13%. Moreover, the “composition of cell population with the highest fluorescent intensity” value in assay [1] (setting [8]) is on record as “almost all cells of the cell population with the highest intensity of T668 fluorescent signal consist of a cardiomyocyte”; in assay [6], “almost all cells of the cell population with the highest intensity of T668 consist of a cardiomyocyte; also recorded: almost all cells of the cell population with the highest intensity of T668 fluorescent signal consist of the cardiomyocyte”. Further, the “composition of cell population with the middle fluorescent intensity” value in assay [1] (setting [8]) is given as “almost all cells of the cell population with the middle fluorescent intensity consist of a non-cardiomyocyte”; in assay [6] it was “almost all cells of the cell population with the middle fluorescent population consist of a non-cardiomyocyte; also recorded: almost all cells of the cell population with the middle fluorescent intensity consist of the non-cardiomyocyte”. Moreover, the “percentage of cardiomyocyte in high fluorescent cell population” value with whole fetal cells is recorded as “more than 95%”; in assay [3] (setting [10]) it was “More than 98%”. For the same compound, the “composition of main cell population” value in assay [3] (setting [10]) is listed as “Almost all of the cells collected consist of a non-cardiomyocyte”. In assay [7], the “high fluorescent cardiomyocyte population as the development stage progressed” value is listed as “increased in number”.
